Source: US8455473B2, “Composition and method for irrigation of a prepared dental root canal” (The University of British Columbia, priority 2008, dated 2013)

Columns and labels:
[1] = test system: Enterococcus faecalis A197A; type: cell-based; conditions: all exposure times (5 seconds, 30 seconds, 3 minutes); detection level 99.995% killing
Method: The antibacterial activity of the composition was evaluated by exposing a planktonic culture (in suspension) of Enterococcus faecalis A197A, a resistant bacterial species often isolated from treatment resistant endodontic infections (root canal infections). In the evaluation, cultures were exposed for 5 seconds, 30 seconds, and 3 minutes. Detection level was at 99.995% killing.

yeasts = conditions: saturated calcium hydroxide solution (pH≧12.5), in vitro; cited from earlier work
enterococci = conditions: saturated calcium hydroxide solution (pH≧12.5), in vitro; cited from earlier work

Structure (SMILES) | survival of Enterococcus faecalis A197A (cfu %) [1] [%] | time to kill yeasts (yeasts) [h] | time to kill enterococci (enterococci) [min]
O=C(O)CN(CCN(CC(=O)O)CC(=O)O)CC(=O)O [17% EDTA, ethylenediamine tetraacetic acid] | 100 | – | –
[Ca+2].[OH-].[OH-] [calcium hydroxide, Calcium hydroxide] | – | ≤ 6 | ≤ 20
